Reference: PubChem BioAssay (NCI)
Several values for one entry are separate records, joined by “and”; a condition that tells them apart may be missing. Equal entries are not always repeated.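 In this assay, cells in 96-well plates receive the compound at five concentrations for 48 hours. Endpoints are linearly interpolated between the surrounding concentrations. GI50 marks 50% less growth. TGI denotes the concentration required for complete inhibition of growth.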

Key:
Experiment in all cases: NCI tumour cell line growth inhibition, 48 h
NCI-H226 lung = tested on: NCI-H226 lung
OVCAR-8 ovarian = tested on: OVCAR-8 ovarian
EKVX NSCLC = tested on: EKVX NSCLC
HCC-2998 colon = tested on: HCC-2998 colon
NCI-H23 lung = tested on: NCI-H23 lung
SF-295 CNS = tested on: SF-295 CNS
LOX IMVI melanoma = tested on: LOX IMVI melanoma
M19-MEL melanoma = tested on: M19-MEL melanoma
UACC-62 melanoma = tested on: UACC-62 melanoma
U251 CNS = tested on: U251 CNS

Compound	GI50 (NCI-H226 lung)	TGI (NCI-H226 lung)	GI50 (OVCAR-8 ovarian)	TGI (OVCAR-8 ovarian)	TGI (EKVX NSCLC)	GI50 (HCC-2998 colon)	TGI (HCC-2998 colon)	TGI (NCI-H23 lung)	GI50 (SF-295 CNS)	TGI (SF-295 CNS)	TGI (LOX IMVI melanoma)	TGI (M19-MEL melanoma)	TGI (UACC-62 melanoma)	TGI (U251 CNS)	GI50 (EKVX NSCLC)	GI50 (NCI-H23 lung)	GI50 (LOX IMVI melanoma)	GI50 (M19-MEL melanoma)	GI50 (UACC-62 melanoma)	GI50 (U251 CNS)
CN[C@@H]1C[C@H]2O[C@@](C)([C@@H]1OC)n1c3ccccc3c3c4c(c5c6ccccc6n2c5c31)C(=O)N[C@@H]4O	0.0492 µM	0.3 µM and 0.477 µM	0.0354 µM	0.164 µM and 0.719 µM	0.232 µM and 2.12 µM	0.0534 µM	0.3 µM and 2.69 µM	1.53 µM	0.0367 µM	0.3 µM and 0.204 µM	0.406 µM	4.99 µM	0.908 µM	0.3 µM and 0.333 µM	–	–	–	–	–	–
CC(=O)O[C@@H]1C2C(=O)OC(=O)C2C2CCC[C@]23O[C@H]13 (stereo not given in full)	–	> 100 µM	–	> 100 µM	–	–	> 100 µM	–	–	–	–	> 100 µM	> 100 µM	> 100 µM	–	–	–	–	–	–
COc1cc(Br)c(C=Nc2cccc3ccc(OS(=O)(=O)c4cccc([N+](=O)[O-])c4)cc23)cc1OC	–	84.1 µM	–	86.5 µM	> 100 µM	–	> 100 µM	44.8 µM	–	60.4 µM	> 100 µM	> 100 µM	> 100 µM	> 100 µM	–	–	–	–	–	–
COc1ccc2c(c1)[n+]([O-])c(/C(C)=N/NC(=O)CC#N)c[n+]2[O-]	–	> 100 µM	–	> 100 µM	> 100 µM	–	> 100 µM	> 100 µM	–	> 100 µM	> 100 µM	> 100 µM	> 100 µM	> 100 µM	–	–	–	–	–	–
COC(=O)C1=C(CS(=O)c2ccccc2[N+](=O)[O-])ON(C)C1c1ccccc1 (stereo not given)	–	> 100 µM	–	56.2 µM	> 100 µM	–	82.9 µM	> 100 µM	–	> 100 µM	28.9 µM	> 100 µM	> 100 µM	> 100 µM	–	–	–	–	–	–
O=[N+]([O-])c1ccc2c(c1)[O][Sn]([I])([I])[O]2	> 100 µM	> 100 µM	> 100 µM	> 100 µM	> 100 µM	> 100 µM	> 100 µM	> 100 µM	> 100 µM	> 100 µM	> 100 µM	> 100 µM	> 100 µM	> 100 µM	> 100 µM	60 µM	89.4 µM	85.3 µM	52 µM	> 100 µM
O=Cc1ccc(-c2cccs2)s1	–	4.85 µM	–	> 100 µM	> 96.6 µM	–	> 100 µM	> 68.1 µM	–	> 100 µM	> 100 µM	> 100 µM	4.42 µM	> 93.8 µM	–	–	–	–	–	–
Nc1nc(CCC(=O)Nc2cccc(C(F)(F)F)c2)cc(-c2ccc3ccccc3c2)n1	–	> 100 µM	–	> 100 µM	> 100 µM	–	> 100 µM	> 100 µM	–	> 100 µM	–	> 100 µM	> 100 µM	> 100 µM	–	–	–	–	–	–
Cc1ccc2c(c1)C(c1cccc3ccccc13)OC2=O (stereo not given)	–	> 100 µM	–	> 100 µM	> 100 µM	–	> 100 µM	> 100 µM	–	> 100 µM	> 100 µM	> 100 µM	> 100 µM	> 100 µM	–	–	–	–	–	–
CC1(C)C2CCC3(C2)CS(=O)(=O)N2OC231 (stereo not given)	–	–	–	67.2 µM	30.3 µM	–	> 100 µM	33.4 µM	–	> 100 µM	31.1 µM	29.8 µM	31.8 µM	> 100 µM	–	–	–	–	–	–
O=c1ccc(=O)c2c(=O)c3ccccc3c(=O)c1=2	–	–	–	> 100 µM	> 100 µM	–	> 100 µM	> 100 µM	–	> 100 µM	> 100 µM	36.8 µM	> 100 µM	> 100 µM	–	–	–	–	–	–
CCOC(=O)[C@H]1Nc2ccc(OC)cc2C2c3ccccc3CC21 (stereo not given in full)	–	> 100 µM	–	> 100 µM	–	–	> 100 µM	> 100 µM	–	> 100 µM	> 100 µM	> 100 µM	> 100 µM	> 100 µM	–	–	–	–	–	–
COC(=O)c1nc(N)[nH]c(=O)c1CCCCCc1c(C(=O)OC)nc(N)[nH]c1=O	–	–	–	> 50 µM	> 50 µM	–	> 50 µM	> 50 µM	–	> 50 µM	> 50 µM	> 50 µM	> 50 µM	> 50 µM	–	–	–	–	–	–
C[C-](O)O.O/C(=C\[C-](O)c1ccccc1)c1ccccc1.O/C(=C\[C-](O)c1ccccc1)c1ccccc1.[Nd+3] (stereo not given)	1.24 µM	7.93 µM	4.48 µM	55 µM	55 µM	2.17 µM	20.2 µM	29.4 µM	0.372 µM	19.4 µM	17.7 µM	42.7 µM	45.3 µM	22.1 µM	8.09 µM	4.69 µM	4.28 µM	12.2 µM	6.56 µM	4.46 µM
O=[N+]([O-])c1ccc2c(c1)[O][Sn][O]2	29 mg/L	> 150 mg/L	65.7 mg/L	> 150 mg/L	> 150 mg/L	> 150 mg/L	> 150 mg/L	143 mg/L	> 150 mg/L	> 150 mg/L	> 150 mg/L	> 150 mg/L	> 150 mg/L	> 150 mg/L	> 150 mg/L	15.3 mg/L	66.5 mg/L	36.9 mg/L	8.32 mg/L	> 150 mg/L
CC[C@@]1(O)C(=O)OCc2c1cc1n(c2=O)Cc2cc3cc(N)ccc3nc2-1	0.00742 µM and 0.0143 µM	0.111 µM and 0.108 µM	0.0218 µM	0.412 µM and 0.198 µM	9.06 µM and 44 µM	0.0707 µM	0.495 µM and 1.36 µM	0.0773 µM and 0.0247 µM	0.00207 µM	0.0717 µM and 0.055 µM	0.207 µM and 0.0665 µM	0.289 µM and 0.222 µM	0.0393 µM and < 0.021 µM	0.134 µM	0.304 µM and 0.348 µM	–	0.0202 µM	–	0.00212 µM	0.0013 µM
C1=CC=C2NCCOCCNC3=CC=CC=CC3=NCCOCCN=C2C=C1	–	> 100 µM	–	> 100 µM	> 100 µM	–	> 100 µM	> 100 µM	–	> 100 µM	> 100 µM	> 100 µM	> 100 µM	> 100 µM	–	–	–	–	–	–
CCOC(=O)C(=O)Nc1c(C(C)C)cccc1C(C)C	–	> 100 µM	–	> 100 µM	> 100 µM	–	> 100 µM	> 100 µM	–	> 100 µM	–	> 100 µM	> 100 µM	> 100 µM	–	–	–	–	–	–
CN(C)C(=O)O[C@@H]1CN[C@@H](C#Cc2cc3ncnc(Nc4ccc(OCc5cccc(F)c5)c(Cl)c4)c3s2)C1	9.22 µM	> 18.4 µM	18.7 µM	> 25 µM	> 23.2 µM	14.1 µM	> 25 µM	> 25 µM	> 25 µM	> 25 µM	> 25 µM	–	> 25 µM	> 25 µM	5.14 µM	> 25 µM	> 25 µM	–	> 25 µM	> 21.2 µM
